Measurements from USRE42890E1, “Furazanobenzimidazoles” (Basilea Pharmaceutica AG, priority 2003, dated 2011).

Assays:
[1] = test system: MRC5; assay: MTS proliferation assay, MRC5; type: cell-based; details: MRC5, 72 h incubation; read-out: MTS proliferation assay IC 50 MRC5
How it was run: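 Seed cells in complete RPMI-1640 medium and allow 24 h attachment. Add compounds to final 10 μM, 3 μM, 1 μM or 0.3 μM and incubate 72 h at 37° C. Add MTS, incubate 3 h more, then measure absorption at 492 nm.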

[2] = test system: HeLa; assay: MTS proliferation assay, HeLa; type: cell-based, human; details: 72 h incubation, read-out: MTS proliferation assay IC 50 HeLa
How it was run: (§1)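 Human lines, EGFP-transfected or not, grow in RPMI-1640 plus 5% or 10% FCS and 2-mercaptoethanol. They receive test compound for 72 h at final concentrations of 10, 3, 1 and 0.3 μM, and MTS conversion is measured at 492 nm.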

[3] = test system: adherent cells or suspension cells; assay: Hoechst 33342 nuclear staining (fraction of apoptotic nuclei); type: cell-based; set-up: key: 0 relating to no activity; 1 relating to weak activity comprising less than 70% of the cells; score 2 relating to strong activity comprising more than 70% of the cells
Experimental: Cell lines are cultured in RPMI-1640 tissue culture medium containing either 5% or 10% fetal calf serum, 0.05 mM 2-mercaptoethanol, 2 mM glutamine and penicillin/streptomycin 50 μg/ml (complete medium) (Sigma, Buchs, Switzerland). General growth conditions are 37° C. and 7.5% CO2.
This assay is performed in 96 well tissue culture plates. Appropriate number of cells (adherent cells: 3-5*10^3, suspension cells: 8-10*10^3) are being seeded out in 80 μl complete medium. Adherent cells are incubated for 24 h for proper spreading out before addition of test compounds while suspension cells are immediately treated with test compounds after seeding out. The test compounds are added in 20 μl complete medium containing max 5% DMSO. […] After 24 h or 48 h incubation at culture conditions, 10 μl medium containing Hoechst 33342 dye (Sigma B-2261) at 2-5 μg/ml are added to each well. The assay plates are then further incubated for 30 minutes and subsequently analyzed with a standard inverted fluorescence microscope.
The readout allows the determination of the fraction of apoptotic nuclei as well as other morphological criteria specific for apoptosis as a function of the treatment. The following scores are used: 0 relating to no activity, 1 relating to weak activity comprising less than 70% of the cells and score 2 relating to strong activity comprising more than 70% of the cells.

[4] = test system: Jurkat; assay: MTS proliferation assay, Jurkat; type: cell-based, human; details: 72 h incubation, read-out: MTS proliferation assay IC 50 Jurkat
How it was run: as §1

SMILES	IC50 [1] [nM]	IC50 [2] [nM]	Hoechst 33342 nuclear staining score ([3]; H460, conc 0.01 μm)	Hoechst 33342 nuclear staining score ([3]; H460, conc 0.1 μm)	Hoechst 33342 nuclear staining score ([3]; H460, conc 1 μm)	Hoechst 33342 nuclear staining score ([3]; HeLa, conc 0.01 μm)	Hoechst 33342 nuclear staining score ([3]; HeLa, conc 0.1 μm)	Hoechst 33342 nuclear staining score ([3]; HeLa, conc 1 μm)	Hoechst 33342 nuclear staining score ([3]; Jurkat, conc 0.01 μm)	Hoechst 33342 nuclear staining score ([3]; Jurkat, conc 0.1 μm)	Hoechst 33342 nuclear staining score ([3]; Jurkat, conc 1 μm)	Hoechst 33342 nuclear staining score ([3]; MRC5, conc 0.01 μm)	Hoechst 33342 nuclear staining score ([3]; MRC5, conc 0.1 μm)	Hoechst 33342 nuclear staining score ([3]; MRC5, conc 1 μm)	Hoechst 33342 nuclear staining score ([3]; PBLs, conc 0.01 μm)	Hoechst 33342 nuclear staining score ([3]; PBLs, conc 0.1 μm)	Hoechst 33342 nuclear staining score ([3]; PBLs, conc 1 μm)	IC50 [4] [nM]	Hoechst 33342 nuclear staining score ([3]; Jily, conc 0.01 μm)	Hoechst 33342 nuclear staining score ([3]; Jily, conc 0.1 μm)	also measured
Nc1nonc1-c1nc2ccccc2n1CC(=NO)c1ccc(Cl)cc1 (mixture of isomers) [Example 21]	> 1000	> 1000	0	0	0	0	0	0	0	0	0	0	0	0	0	0	0	> 1000	–	–	–
CON=C(Cn1c(-c2nonc2N)nc2ccccc21)c1ccccc1Cl (mixture of isomers) [Example 34]	> 1000	> 1000	0	0	0	0	0	0	0	0	0	0	0	0	0	0	0	> 1000	0	0	Hoechst 33342 nuclear staining score ([3]; Jily, conc 1 μm): 0
Nc1nonc1-c1nc2ccccc2n1CC(=O)c1ccccc1Cl [Example 32]	> 1000	100 to 1000	0	0	0	0	0	0	0	0	2 (score 2 relating to strong activity comprising more than 70% of the cells)	0	0	0	0	0	0	100 to 1000	0	0	Hoechst 33342 nuclear staining score ([3]; Jily, conc 1 μm): 0
Nc1nonc1-c1nc2ccccc2n1CC(=NO)c1ccccc1Cl (mixture of isomers) [Example 33]	> 1000	> 1000	0	0	0	0	0	0	0	0	0	0	0	0	0	0	0	> 1000	0	0	Hoechst 33342 nuclear staining score ([3]; Jily, conc 1 μm): 0
CC(=O)Nc1nonc1-c1nc2ccccc2n1CC(=O)c1ccccc1 [Example 40]	> 1000	100 to 1000	0	0	0	0	0	0	0	0	0	0	0	0	0	0	0	100 to 1000	0	0	Hoechst 33342 nuclear staining score ([3]; Jily, conc 1 μm): 1 (1 relating to weak activity comprising less than 70% of the cells)
